Key:
[1] = tested on: Kunming mice with CFA-induced inflammation; assay: Effective concentration and plateau experiment of vanadium compounds, tail vein injection, mouse pain model; format: in vivo; details: for Duration / Maximum analgesic intensity (mean) / Onset time: 6 samples
[2] = tested on: Kunming mice with CFA-induced inflammation; assay: Von Frey test (50% paw withdrawal threshold) in CFA-induced inflammatory pain mouse model; format: in vivo
Experimental: 10 μL of complete Freund's adjuvant (CFA) was injected into the left hind foot of mice (♂ Kunming mice, 22 g to 40 g) to induce inflammation. 24 hours after the injection, a Von Frey test was performed to determine a pain threshold. That is, under the guidance of Dixon's Up-Down method, Von Frey fibers were used to induce the mechanical paw withdrawal of the mice, and data were collected and calculated to obtain their 50% paw withdrawal thresholds (paw withdrawal threshold or PWT for short, i.e. pain threshold). Mice were then divided into different groups, including a normal saline group, a positive control group, and a drug group, which were intraperitoneally injected with normal saline, an aspirin (acetylsalicylic acid, or ASA) solution and a solution of compound for testing respectively. A Von Frey test was then performed to monitor changes in pain threshold.
Mice were divided into three groups: a blank control group, an aspirin (ASA) group, and a drug group. In blank control group, the mice were given normal saline, deionized water or deionized water containing ≤5% DMSO at the same volume as that in the drug group. In ASA group, the mice were given the known analgesic drug ASA as the positive control for tested compounds. In drug group, the mice were given compounds for testing accordingly. Due attention was paid to observe whether the pain threshold rose, the period during which the rise was maintained and the magnitude of the rise, after the injection of a tested compound solution.

[3] = Plateau experiment, dose (vanadium) A5/G3 0.25, A1/G1/H1 0.49, A4/G2/H2 0.97, H3 1.9 mg/kg, listed as G2
[4] = Plateau experiment, dose (vanadium) A5/G3 0.25, A1/G1/H1 0.49, A4/G2/H2 0.97, H3 1.9 mg/kg, listed as A4
[5] = Example 12, intraperitoneal injection, J about 0.97 mg/kg (atomic mass of vanadium)
[6] = Example 13, intraperitoneal injection, K about 0.97 mg/kg (atomic mass of vanadium)
[7] = Plateau experiment, dose (vanadium) A5/G3 0.25, A1/G1/H1 0.49, A4/G2/H2 0.97, H3 1.9 mg/kg, listed as G3
[8] = Example 5, intraperitoneal injection, C 1.9 mg/kg (atomic mass of vanadium), S about 250 mg/kg
[9] = intraperitoneal injection, conclusions of Examples 3-9
[10] = intraperitoneal injection, doses as in Examples 3-9
[11] = intraperitoneal injection, doses as in Examples 3-9, most of the time after onset
[12] = intraperitoneal injection, versus aspirin control group
[13] = Plateau experiment, dose (vanadium) A5/G3 0.25, A1/G1/H1 0.49, A4/G2/H2 0.97, H3 1.9 mg/kg, listed as H2
[14] = Example 14, intraperitoneal injection, L about 0.97 mg/kg (atomic mass of vanadium)
[15] = Plateau experiment, dose (vanadium) A5/G3 0.25, A1/G1/H1 0.49, A4/G2/H2 0.97, H3 1.9 mg/kg, 1.9 mg/kg
[16] = Example 6, intraperitoneal injection, D 1.9 mg/kg, S about 250 mg/kg, listed as D
[17] = Effective concentration table, 8.2 × 10^−4 mg/kg
[18] = Example 11 (BEOV), intraperitoneal injection, I about 0.97 mg/kg (atomic mass of vanadium)
[19] = Plateau experiment, dose (vanadium) A5/G3 0.25, A1/G1/H1 0.49, A4/G2/H2 0.97, H3 1.9 mg/kg, listed as A5
[20] = Example 11 (BMOV), intraperitoneal injection, H1 about 0.97 mg/kg (atomic mass of vanadium)
[21] = Plateau experiment, dose (vanadium) A5/G3 0.25, A1/G1/H1 0.49, A4/G2/H2 0.97, H3 1.9 mg/kg, listed as H1
[22] = Example 3, intraperitoneal injection, A1 0.97 mg/kg (atomic mass of vanadium), S about 250 mg/kg
[23] = Plateau experiment, dose (vanadium) A5/G3 0.25, A1/G1/H1 0.49, A4/G2/H2 0.97, H3 1.9 mg/kg, listed as A1
[24] = Example 15, intraperitoneal injection, M about 0.97 mg/kg (atomic mass of vanadium)

`O=S(=O)([O-])[O-].[O]=[V+2]` [Solution G2, Vanadyl sulfate] was tested, and the Duration [1, 3] was “no obvious difference” and the “Maximum analgesic intensity (mean)” value [1, 3] was roughly 0.49 g.

In the case of `[Na+].[Na+].[Na+].[O]=[V]([O-])([O-])[O-]` [Solution A4, Sodium orthovanadate], the Duration [1, 4] was less than 60 min and the “Maximum analgesic intensity (mean)” value [1, 4] was roughly 0.30 g.

`[O]=[V-2]12([O]C3=COC(CO)=CC3=[O+]1)[O]C1=COC(CO)=CC1=[O+]2` [Solution J, bis(kojato)oxovanadium (IV)] was tested, and the Duration [2, 5] was greater than 60 min and the Onset time [2, 5] was 15 to 30 after injection min.

“Bis(acetylacetonato)oxovanadium (IV) [Solution K]” showed a Duration [2, 6] greater than 60 min and an Onset time [2, 6] of 15 to 30 after injection min.

With `O=S(=O)([O-])[O-].[O]=[V+2]` [Solution G, Vanadyl sulfate] the Minimum effective dose ([1]; mice) was “about 1.0×10^−3 mg/kg” and the “Blood concentration in mice equivalent to the plateau dose” value ([1]; plateau dose 0.49 mg/kg) was 140 µM.

In the case of `O=S(=O)([O-])[O-].[O]=[V+2]` [Solution G3, Vanadyl sulfate], the Duration [1, 7] was greater than 60 min and the “Maximum analgesic intensity (mean)” value [1, 7] was roughly 0.46 g.

“Cis-bis(maltolato)methoxyoxovanadium (V) [Solution C]” was tested, and the Duration [2, 8] was “about 60 min”, the Onset time [2, 8] was 15 to 30 after injection min and the Analgesic effect [2, 9] was “has an analgesic effect”. The “Time after injection at which the pain threshold returned to the baseline value” (shortened to “Time after injection”) [2, 10] was 90 min, the “Pain thresholds / analgesic intensity compared with the S (ASA, aspirin) group” value [2, 11] was “comparable to those of the mice, boosted by the solution S, in the S group” and the “Effective duration compared with aspirin (ASA)” value [2, 12] was “longer than that of aspirin”.

In the case of `Cc1occc(=O)c1[O-].Cc1occc(=O)c1[O-].[O]=[V+2]` [Solution H2, bis(maltolato)oxovanadium (IV)], the Duration [1, 13] was greater than 60 min and the “Maximum analgesic intensity (mean)” value [1, 13] was 0.54 g.

In the case of `O=C([O-])C(=O)[O-].[O]=[V+2]` [Solution L, Vanadyl oxalate], the Duration [2, 14] was greater than 60 min and the Onset time [2, 14] was 15 to 30 after injection min.

For `Cc1occc(=O)c1[O-].Cc1occc(=O)c1[O-].[O]=[V+2]` [Solution H3, bis(maltolato)oxovanadium (IV)], the Duration [1, 15] was no more than 60 min and the “Maximum analgesic intensity (mean)” value [1, 15] was 0.48 g.

Molecule Sodium metavanadate [Solution D] has a Duration [2, 16] greater than 60 min, an Onset time [2, 16] of 0 to 15 after injection min and a Duration ([2]; Example 6, intraperitoneal injection, D 1.9 mg/kg, S about 250 mg/kg, listed as metavanadate) greater than 60 min. The Analgesic effect [2, 9] was “has an analgesic effect”, the “Time after injection” value [2, 10] was roughly 90 min and the “Pain thresholds / analgesic intensity compared with the S (ASA, aspirin) group” value [2, 11] was “greater than or comparable to those of the mice, boosted by the solution S, in the S group”. For the same molecule, the “Effective duration compared with aspirin (ASA)” value [2, 12] was “longer than that of aspirin”.

In the case of `[Na+].[Na+].[Na+].[O]=[V]([O-])([O-])[O-]` [Solution A6, Sodium orthovanadate], the Duration [1, 17] was less than 60 min and the Onset time [1, 17] was 0 to 15 min.

`[Na+].[Na+].[Na+].[O]=[V]([O-])([O-])[O-]` [Solution A2, Sodium orthovanadate] gave an Onset time ([2]; Example 4, intraperitoneal injection, A1 0.97, A2 0.19, A3 0.097 mg/kg (atomic mass of vanadium), listed as A2) of 30 to 45 after injection min.

“bis(ethylmaltolato)oxovanadium (IV) [Solution I]” was tested, and the Duration [2, 18] was greater than 60 min and the Onset time [2, 18] was 15 to 30 after injection min.

`[Na+].[Na+].[Na+].[O]=[V]([O-])([O-])[O-]` [Solution A5, Sodium orthovanadate] was tested, and the Duration [1, 19] was greater than 60 min and the “Maximum analgesic intensity (mean)” value [1, 19] was roughly 0.45 g.

In the case of “potassium dioxo(citrato)vanadate (V) [Solution F]”, the Duration ([2]; mouse, in vivo) was greater than 60 min, the Onset time ([2]; mouse, in vivo) was 15 to 30 after injection min and the Analgesic effect ([2]; mouse, in vivo, ip) was “has an analgesic effect”. The “Effective duration compared with aspirin (ASA)” value ([2]; mouse, in vivo, ip) was “longer than that of aspirin”, the “Pain thresholds / analgesic intensity compared with the S (ASA, aspirin) group” value ([2]; mouse, in vivo, ip) was “higher than those of the mice, boosted by the solution S, in the S group” and the “Time after injection” value ([2]; mouse, in vivo, ip) was greater than 90 min.

Work on `Cc1occc(=O)c1[O-].Cc1occc(=O)c1[O-].[O]=[V+2]` [Solution H1, bis(maltolato)oxovanadium (IV)] yielded a Duration [2, 20] greater than 60 min, an Onset time [2, 20] of 0 to 15 after injection min and a Duration [1, 21] of no more than 60 min. For the same molecule, the “Maximum analgesic intensity (mean)” value [1, 21] was 0.33 g.

`Cc1occc(=O)c1[O-].Cc1occc(=O)c1[O-].[O]=[V+2]` [Solution H, bis(maltolato)oxovanadium (IV)] showed a Plateau dose ([1]; mice, based on vanadium) of no less than 0.97 mg/kg.

Work on `[Na+].[Na+].[Na+].[O]=[V]([O-])([O-])[O-]` [Solution A3, Sodium orthovanadate] yielded an Onset time ([2]; Example 4, intraperitoneal injection, A1 0.97, A2 0.19, A3 0.097 mg/kg (atomic mass of vanadium), 0.097 mg/kg) of 30 to 45 after injection min.

`[Na+].[Na+].[Na+].[O]=[V]([O-])([O-])[O-]` [Solution A1, Sodium orthovanadate] showed a Duration [2, 22] greater than 60 min, an Onset time [2, 22] of 30 to 45 after injection min and a Duration ([2]; Example 4, intraperitoneal injection, A1 0.97, A2 0.19, A3 0.097 mg/kg (atomic mass of vanadium)) greater than 60 min. The Onset time ([2]; Example 4, intraperitoneal injection, A1 0.97, A2 0.19, A3 0.097 mg/kg (atomic mass of vanadium), listed as A1) was 30 to 45 after injection min, the “Time after injection” value [2, 10] was greater than 90 min and the “Pain thresholds / analgesic intensity compared with the S (ASA, aspirin) group” value [2, 11] was “generally higher than those of the mice in the S group”. The Duration [1, 23] was greater than 60 min and the “Maximum analgesic intensity (mean)” value [1, 23] was roughly 0.55 g.

`O=C(O)c1ccccn1.O=C(O)c1ccccn1.[O]=[V]` [Solution M, Bis(picolinato)oxovanadium (IV)] was tested, and the Duration [2, 24] was greater than 60 min and the Onset time [2, 24] was 15 to 30 after injection min.

Work on `O=S(=O)([O-])[O-].[O]=[V+2]` [Solution G4, Vanadyl sulfate] yielded a Duration [1, 17] of less than 60 min and an Onset time [1, 17] of 0 to 15 min.
